The values that follow are results of earlier work, collected in patent publication US20100069398A1, “Combination therapy” (priority 2004, published 2010).

The subject of this series is tumour models. The note with it: once-daily oral administration, range of models.

Take `COc1cc2c(Nc3ccc(Br)cc3F)ncnc2cc1OCC1CCN(C)CC1` [ZD6474, 4-(4-bromo-2-fluoroanilino)-6-methoxy-7-(1-methylpiperidin-4-ylmethoxy)quinazoline]: the anti-tumour activity result is “broad-spectrum anti-tumour activity”.
